Data taken from ChEMBL document CHEMBL5518246, “Discovery of Small Molecule Interleukin 17A Inhibitors with Novel Binding Mode and Stoichiometry: Optimization of DNA-Encoded Chemical Library Hits to In Vivo Active Compounds” (J Med Chem, 2024).
Values after ≈ are worked out from the molar mass of the structure shown.

Experiments:
[1] = Thermodynamic solubility of the compound at pH 7.4 measured after 48 hrs by UHPLC analysis; assay type: physicochemical; conditions: buffer, read-out: Therm_solubility
[2] = Metabolic stability in human liver microsomes assessed as unbound intrinsic clearance at 0.5 uM measured after 4 hrs; assay type: ADME, Microsome
[3] = Plasma clearance in iv dosed CD-1 mouse measured after 24 hrs; assay type: ADME, organism-based
[4] = Unbound plasma clearance in iv dosed CD-1 mouse measured after 24 hrs; assay type: ADME, organism-based; conditions: in vivo
[5] = Oral bioavailability in mouse at 10 mg/kg; assay type: ADME, organism-based; conditions: in vivo
[6] = Oral bioavailability in mouse at 1 mg/kg; assay type: ADME, organism-based; conditions: in vivo
[7] = Unbound plasma clearance in Sprague-Dawley rat at 1 mg/kg, iv measured after 24 hrs; assay type: ADME, organism-based; conditions: in vivo
[8] = Plasma clearance in Sprague-Dawley rat at 1 mg/kg, iv measured after 24 hrs; assay type: ADME, organism-based
[9] = Volume of distribution at steady-state in Sprague-Dawley rat at 1 mg/kg, iv measured after 24 hrs; assay type: ADME, organism-based; conditions: in vivo, read-out: Vdss
[10] = Thermodynamic solubility of the compound in FaSSIF at pH 6.5 after 48 hrs by UHPLC analysis; assay type: ADME; conditions: read-out: Therm_solubility
[11] = Half life in Sprague-Dawley rat at 1 mg/kg, iv measured after 24 hrs; assay type: ADME, organism-based; conditions: in vivo
[12] = Metabolic stability in rat liver microsomes assessed as unbound intrinsic clearance; assay type: ADME, Microsome
[13] = Drug uptake in IL17A-induced CXCL1 secretion in C57BL/6 mouse at 10 mg/kg, iv pretreated 1 hr before IL17A challenge measured after 2 hrs; assay type: ADME, organism-based; conditions: in vivo, read-out: Drug uptake

Row | solubility thermodynamic at 48 h [1] [µM] | CL free [2] [mL/min/kg] | Compound | also measured
1 | 0.82 (≈ 0.46 µg/mL) | 61.7 | C[C@H](NC(=O)[C@]1(NC(=O)c2cc(Cl)c(Cl)[nH]2)CO[C@H](c2ccccc2)C1)c1cn2c(=O)n(C)cc(F)c2n1 | clearance [3]: 33.3 mL/min/kg; CL free [4]: 1830 mL/min/kg; bioavailability [5]: 22%
2 | 1.7 (≈ 0.759 µg/mL) | 200 | C[C@H](NC(=O)[C@H](CCc1ccccc1)NC(=O)c1cc(Cl)c(Cl)[nH]1)c1ncccn1 | –
3 | 4.5 (≈ 2.4 µg/mL) | 163 | C[C@H](NC(=O)[C@H](CCc1ccccc1)NC(=O)c1cc(Cl)c(Cl)[nH]1)c1cn2c(=O)n(C)cc(F)c2n1 | clearance [3]: 45 mL/min/kg; CL free [4]: 4830 mL/min/kg; bioavailability [6]: 1.6%
4 | > 1000 | < 45 | C[C@H](NC(=O)[C@]1(NC(=O)c2cc(Cl)c(Cl)[nH]2)CO[C@H](c2ccccc2)C1)c1ncc2c(n1)CN(C1CCN(C)CC1)C2 | CL free [7]: 102 mL/min/kg; clearance [8]: 18.3 mL/min/kg; Vd [9]: 5 L/kg; solubility thermodynamic at 48 h [10]: 460 µg/mL (≈ 751 µM); half-life [11]: 3.6 h; CL free [12]: < 76.7 mL/min/kg; concentration at 1 h [13]: 108 ng/mL
5 | 60 (≈ 39.4 µg/mL) | < 31.7 | COCc1ccc([C@@H]2C[C@](NC(=O)c3cc(Cl)c(Cl)[nH]3)(C(=O)N[C@@H](C)c3ncc4c(n3)CN(C3CCN(C)CC3)C4)CO2)cc1 | CL free [7]: 250 mL/min/kg; clearance [8]: 33.3 mL/min/kg; Vd [9]: 3.2 L/kg; half-life [11]: 1.5 h; CL free [12]: < 53.3 mL/min/kg; concentration at 1 h [13]: 85 ng/mL
6 | 654 (≈ 417 µg/mL) | < 38.3 | C[C@H](NC(=O)[C@]1(NC(=O)c2cc(Cl)c(Cl)[nH]2)CO[C@H](c2cccc(C#N)c2)C1)c1ncc2c(n1)CN(C1CCN(C)CC1)C2 | –
7 | 17 (≈ 8.78 µg/mL) | 132 | C[C@H](NC(=O)[C@]1(NC(=O)c2cc(Cl)c(Cl)[nH]2)CO[C@H](c2ccccc2)C1)c1ncc2c(n1)COC2 | CL free [7]: 1430 mL/min/kg; clearance [8]: 46.7 mL/min/kg; Vd [9]: 1.4 L/kg; solubility thermodynamic at 48 h [10]: 16 µg/mL (≈ 31 µM); half-life [11]: 0.47 h; CL free [12]: 1080 mL/min/kg; concentration at 1 h [13]: 190 ng/mL
8 | 73 (≈ 33.8 µg/mL) | 71.7 | O=C(N[C@@H](CCc1ccccc1)C(=O)NCc1ncc(CO)cn1)c1cc(Cl)c(Cl)[nH]1 | –
9 | 600 (≈ 351 µg/mL) | < 26.7 | C[C@H](NC(=O)[C@]1(NC(=O)c2cc(Cl)c(Cl)[nH]2)CO[C@H](c2ccccc2)C1)c1ncc2c(n1)CN(C1CN(C)C1)C2 | –
10 | 120 (≈ 69.4 µg/mL) | < 35 | C[C@H](NC(=O)[C@]1(NC(=O)c2cc(Cl)c[nH]2)CO[C@H](c2ccccc2)C1)c1ncc2c(n1)CN(C1CCN(C)CC1)C2 | CL free [7]: 48.3 mL/min/kg; clearance [8]: 21.7 mL/min/kg; Vd [9]: 5.9 L/kg; solubility thermodynamic at 48 h [10]: 630 µg/mL (≈ 1090 µM); half-life [11]: 3.3 h; CL free [12]: < 60 mL/min/kg; concentration at 1 h [13]: 68 ng/mL
11 | 8 (≈ 3.79 µg/mL) | 183 | O=C(N[C@@H](CCc1ccccc1)C(=O)NCc1ncc2c(n1)COC2)c1cc(Cl)c(Cl)[nH]1 | –
12 | 230 (≈ 99.2 µg/mL) | 1300 | O=C(N[C@@H](CCc1ccccc1)C(=O)NCc1cccnc1)c1cc(Cl)c(Cl)[nH]1 | –

The next lines start with the compound.

Row | Compound | solubility thermodynamic at 48 h [1] [µM] | CL free [2] [mL/min/kg] | also measured
13 | C[C@H](NC(=O)[C@]1(NC(=O)c2cc(Cl)c(Cl)[nH]2)CO[C@H](c2ccccc2)C1)c1ncc2c(n1)CN([C@H]1CCN(C)C1)C2 | > 1000 | < 45 | –
14 | C[C@H](NC(=O)[C@]1(NC(=O)c2cc(Cl)c(Cl)[nH]2)CO[C@H](c2ccccc2)C1)c1ncc2c(n1)CN(CC(F)F)C2 | 7.2 (≈ 4.17 µg/mL) | 55 | –
15 | O=C(N[C@@H](CCc1ccccc1)C(=O)NCc1ncc2c(n1)CCC2)c1cc(Cl)c(Cl)[nH]1 | 27 (≈ 12.8 µg/mL) | 1100 | –
16 | C[C@H](NC(=O)[C@]1(NC(=O)c2cc(Cl)c(Cl)[nH]2)CO[C@H](c2ccccc2)C1)c1ncc2c(n1)CN(C1COC1)C2 | 280 (≈ 160 µg/mL) | < 28.3 | –
17 | C[C@H](NC(=O)[C@]1(NC(=O)c2cc(Cl)c(Cl)[nH]2)CO[C@H](c2ccccc2)C1)c1ncc2c(n1)CN([C@@H]1CCN(C)C1)C2 | > 1000 | 400 | –
18 | O=C(N[C@@H](CCc1ccccc1)C(=O)NCc1ncc(C2CCOCC2)cn1)c1cc(Cl)c(Cl)[nH]1 | 2.5 (≈ 1.29 µg/mL) | 333 | –
19 | CN1Cc2cnc(CNC(=O)[C@H](CCc3ccccc3)NC(=O)c3cc(Cl)c(Cl)[nH]3)nc2C1 | 1.8 (≈ 0.877 µg/mL) | 140 | –
20 | COCc1cccc([C@@H]2C[C@](NC(=O)c3cc(Cl)c(Cl)[nH]3)(C(=O)N[C@@H](C)c3ncc4c(n3)CN(C3CCN(C)CC3)C4)CO2)c1 | 660 (≈ 433 µg/mL) | < 35 | –
21 | C[C@H](NC(=O)[C@]1(NC(=O)c2cc(Cl)c(Cl)[nH]2)CO[C@H](c2ccccc2)C1)c1ncc2c(n1)CN(CC#N)C2 | 61 (≈ 33.8 µg/mL) | 120 | –
22 | COCc1cnc(CNC(=O)[C@H](CCc2ccccc2)NC(=O)c2cc(Cl)c(Cl)[nH]2)nc1 | 5.7 (≈ 2.72 µg/mL) | 167 | –
23 | C[C@H](NC(=O)[C@]1(NC(=O)c2cc(Cl)c(Cl)[nH]2)CO[C@H](c2ccc(F)cc2)C1)c1ncc2c(n1)CN(C1CCN(C)CC1)C2 | 510 (≈ 322 µg/mL) | < 36.7 | CL free [7]: 137 mL/min/kg; clearance [8]: 21.7 mL/min/kg; Vd [9]: 6.4 L/kg; half-life [11]: 3.5 h; concentration at 1 h [13]: 139 ng/mL
24 | O=C(N[C@@H](CCc1ccccc1)C(=O)NCc1ncccn1)c1cc(Cl)c(Cl)[nH]1 | 25 (≈ 10.8 µg/mL) | 46.7 | –
25 | O=C(N[C@@H](CCc1ccccc1)C(=O)NCc1ccccc1)c1cc(Cl)c(Cl)[nH]1 | 145 (≈ 62.4 µg/mL) | 1530 | –
26 | COc1cccc([C@@H]2C[C@](NC(=O)c3cc(Cl)c(Cl)[nH]3)(C(=O)N[C@@H](C)c3ncc4c(n3)CN(C3CCN(C)CC3)C4)CO2)c1 | 532 (≈ 342 µg/mL) | < 41.7 | –
